Assay results taken from US20220184071A1, “GEPOTIDACIN FOR USE IN THE TREATMENT OF BACTERIAL URINARY TRACT INFECTIONS” (GlaxoSmithKline Intellectual Property Development Limited, priority 2019, published 2022).
In brackets after ≈: the same amount, converted by molar mass.

Experiments:
[1] = system: viridans streptococci; experiment: MIC by CLSI broth microdilution, Example 5 second study; type: cell-based; conditions: 19 isolates, 2013-2014
Text: (§1) A second study tested gepotidacin by CLSI broth microdilution against bacterial isolates collected from patients with acute bacterial skin and soft tissue infections between 2013-2014. Amoxicillin/clavulanic acid, linezolid, fusidic acid, ceftriaxone, ceftaroline, vancomycin, penicillin, quinupristin/dalfopristin, erythromycin, clindamycin, meropenem, tetracycline, chloramphenicol, flucloxacillin, telavancin, daptomycin, trimethoprim/sulfamethoxazole, gentamicin, levofloxacin, tigecycline and cefuroxime were included as comparators. MICs were determined by broth microdilution according to CLSI methods.

[2] = system: S. anginosus; experiment: as above; type: cell-based; conditions: Streptococcus anginosus; 10 isolates, 2013-2014
Text: as §1

[3] = system: Acinetobacter pittii; experiment: Phase IIa non-qualifying baseline uropathogen MIC; type: cell-based; conditions: baseline uropathogen recovered at <10^5 CFU/mL
Method: (§2) This phase IIa single center study evaluated the safety, tolerability, pharmacokinetics, and efficacy of oral gepotidacin 1500 mg BID for 5 days in female subjects with acute cystitis. Clean catch mid-stream urine specimens were obtained for quantitative culture by standard methods. Urine samples were taken from all participants pre-treatment (baseline) and at all post-baseline visits. All urine samples were sent to a central laboratory (PPD Global Clinical Laboratories, Highland Heights, Ky., USA) for Gram stain, quantitative culture, pathogen identification and susceptibility testing. See FIG. 1 for participant disposition and study outline.
(§3) Susceptibility testing by CLSI broth microdilution and gradient diffusion (fosfomycin only) was conducted (CLSI, 2015, Methods for dilution antimicrobial susceptibility tests for bacteria that grow aerobically; approved standard-tenth edition; and CLSI, 2018. Performance Standards for Antimicrobial Susceptibility Testing; Twenty-seventh Informational Supplement M100-S28). Inclusion in the microbiological intent-to-treat population (micro-ITT), required growth of a qualifying baseline uropathogen (≥10^5 CFU/mL). See FIG. 2 for the baseline algorithm.

[4] = system: Citrobacter freundii complex; experiment: Phase IIa non-qualifying baseline uropathogen MIC; type: cell-based; conditions: baseline uropathogen recovered at <10^5 CFU/mL
Method: as §2, §3

[5] = system: Bacteroides vulgatus; experiment: MIC by broth microdilution, drug-resistant isolates; type: cell-based
Method: (§4) Additional analysis was performed from the results of the study described in Method 1 above, to determine the in vitro activity of gepotidacin against gram-negative and gram-positive anaerobic organisms with resistance to ceftriaxone, clindamycin, imipenem, metronidazole, moxifloxacin and piperacillin/tazobactam.

[6] = system: Bacteroides ovatus; experiment: as above; type: cell-based
Method: as §4

[7] = system: Bacteroides fragilis; experiment: as above; type: cell-based
Method: as §4

[8] = system: Bacteroides uniformis; experiment: as above; type: cell-based
Method: as §4

[9] = system: Bacteroides caccae; experiment: as above; type: cell-based; conditions: 1 isolate
Method: as §4

[10] = system: Bacteroides spp; experiment: as above; type: cell-based
Method: as §4

[11] = system: Bacteroides thetaiotaomicron; experiment: as above; type: cell-based
Method: as §4

[12] = system: Bacteroides stercoris; experiment: as above; type: cell-based; conditions: ceftriaxone R, 2 isolates
Method: as §4

[13] = system: E. coli ALL; experiment: Neutropenic mouse kidney infection (pyelonephritis/UTI) model PK/PD; type: in vivo; conditions: Strain ALL
Method: PK and PD studies using gepotidacin were conducted in murine (male CD-1 mice) thigh and kidney infections. The administered doses ranged from 1 to 200 mg/kg SC every 6 hours starting 1h post infection. Infected tissues were evaluated for bacterial burden at 24 h post infection (baseline controls at 1 h post infection).
Efficacy was determined against E. coli ALL, 997577, ATCC25922, IR5 and NCTC13441 (MICs of 1 to 4 μg/mL) in thigh-infected neutropenic (I−) mice and against E. coli ALL in kidney-infected immunocompetent (I+) and I− mice. The PopPK model was used to determine GEP exposures associated with efficacy. PK-PD analyses were conducted using Phoenix WinNonLin 6.3 (Pharsight). The change in login colony forming units (CFU) from baseline were correlated with free drug (f) AUC:MIC using an inhibitory model from the Phoenix library, and model parameter values for each isolate were used to calculate the plasma fAUC:MIC associated with stasis, 1- or 2-login reductions in CFU.
PD studies were conducted using thigh and/or kidney infection models in neutropenic or competent mice (N=5/group). Mice were infected with a bacterial suspension in log phase: 100 μL in the left thigh muscle or 50 μL in each of both kidneys (100 μl total). Final inocula across all isolates were 6.0 to 7.0 login CFU/mouse. Dose-ranging studies were conducted with 5 isolates (see Table 1). Starting 1 hr after infection, GEP was given SC (0.2 mL/mouse) at discrete doses of 1-200 mg/kg every 6 hours (q6) for a 24-hour period (4 doses in total). Mice were euthanized 24 hr after start of therapy (6 hr after the last dose), and infected thighs or kidneys were processed to determine viable bacterial counts (CFU). Baseline CFU were obtained from untreated mice at 1 hr post infection and growth control CFU from saline-treated mice at 24 hr.
NCA analyses were conducted with the simulated data. […]

[14] = system: Acidovorax temperans; experiment: MIC by CLSI broth microdilution, isolates from UTI patients (Example 7); type: cell-based; conditions: n=1
Method: (§5) Gepotidacin was tested against the following organisms obtained from UTI patients, in serial two-fold dilutions. The minimum inhibitory concentration (MIC) was determined by broth microdilution according to CLSI methods.

[15] = system: Providencia stuartii; experiment: as above; type: cell-based; conditions: n=1
Method: as §5

[16] = system: Citrobacter amalonaticus; experiment: as above; type: cell-based; conditions: n=1
Method: as §5

## O=c1ccc2ncc(=O)n3c2n1C[C@H]3CN1CCC(NCc2cc3c(cn2)OCCC3)CC1 [gepotidacin, (2R)-2-({4-[(3,4-dihydro-2H-pyrano[2,3-c]pyridin-6-ylmethyl)amino]-1-piperidinyl}methyl)-1,2-dihydro-3H,8H-2a,5,8a-triazaacenaphthylene-3,8-dione]
[1]
  MIC90: 0.5 µg/mL (≈ 1.11 µM)
[2]
  MIC90: 1 µg/mL (≈ 2.23 µM)
[3]
  MIC: 1 µg/mL (≈ 2.23 µM)
[4]
  MIC: 1 µg/mL (≈ 2.23 µM)
[5]; ceftriaxone R, 7 isolates
  Gepotidacin MIC range: 0.06 to 4 µg/mL
[5]; clindamycin R, 4 isolates
  Gepotidacin MIC range: 0.06 to 0.5 µg/mL
[5]; moxifloxacin R, 3 isolates
  Gepotidacin MIC range: 0.25 to 4 µg/mL
[6]; ceftriaxone R, 5 isolates
  Gepotidacin MIC range: 0.5 to 2 µg/mL
[6]; clindamycin R, 5 isolates
  Gepotidacin MIC range: 0.25 to 4 µg/mL
[6]; moxifloxacin R, 3 isolates
  Gepotidacin MIC range: 0.5 to 4 µg/mL
[7]; ceftriaxone R, 24 isolates
  Gepotidacin MIC range: 0.25 to 16 µg/mL
[7]; clindamycin R, 23 isolates
  Gepotidacin MIC range: 0.06 to 16 µg/mL
[7]; imipenem R, 2 isolates
  Gepotidacin MIC range: 1 to 4 µg/mL
[7]; moxifloxacin R, 20 isolates
  Gepotidacin MIC range: 0.25 to 8 µg/mL
[7]; pip/tazo R, 2 isolates
  Gepotidacin MIC range: 1 to 4 µg/mL
[8]; ceftriaxone R, 2 isolates
  Gepotidacin MIC range: 0.5 to 2 µg/mL
[8]; moxifloxacin R, 1 isolate
  Gepotidacin MIC range: 0.5 µg/mL
[9]; ceftriaxone R
  Gepotidacin MIC range: 0.25 µg/mL
[9]; clindamycin R
  Gepotidacin MIC range: 4 µg/mL
[9]; moxifloxacin R
  Gepotidacin MIC range: 0.25 µg/mL
[10]; ceftriaxone R, 61 isolates
  Gepotidacin MIC range: ≤0.015 to 6 µg/mL
[10]; clindamycin R, 51 isolates
  Gepotidacin MIC range: 0.06 to 16 µg/mL
[10]; moxifloxacin R, 35 isolates
  Gepotidacin MIC range: 0.25 to 8 µg/mL
[11]; ceftriaxone R, 20 isolates
  Gepotidacin MIC range: 0.5 to 8 µg/mL
[11]; clindamycin R, 18 isolates
  Gepotidacin MIC range: 0.5 to 8 µg/mL
[11]; moxifloxacin R, 7 isolates
  Gepotidacin MIC range: 0.5 to 8 µg/mL
[12]
  Gepotidacin MIC range: ≤0.015 to 0.5 µg/mL
[13]
  Daily fAUC/MIC for 1-log Drop: 8.7
  Daily fAUC/MIC for 2-log Drop: 15.6
  Daily fAUC/MIC for Stasis: 4.3
[14]
  MIC: 1 µg/mL (≈ 2.23 µM)
[15]
  MIC: 32 µg/mL (≈ 71.3 µM)
[16]
  MIC: 2 µg/mL (≈ 4.46 µM)
